This passage reports IC50 results from US20170305882A1, “BENZYL SUBSTITUTED INDAZOLES AS BUB1 KINASE INHIBITORS” (Bayer Pharma Aktiengesellschaft, priority 2014, published 2017).

The target in experiment [1] is T1, (recombinant) catalytic domain of human Bub1 (amino acids 704-1085) (Homo sapiens, UniProt O43683).
T1 construct: catalytic domain of human Bub1 (amino acids 704-1085); 6xHis (N); made in house; host or cells: Hi5 insect cells
Kind of experiment: Bub1 kinase assay (TR-FRET). The class given is biochemical. The conditions noted are these: ATP 10 μM, 60 min reaction, pH 7.5; read-out: Biological Assay 1: Bub1 kinase assay median IC50.

Experiment [2] has as its system HeLa human cervical tumor cells. Kind of experiment: Proliferation assay (HeLa cell line). The class given is cell-based. The conditions noted are these: 96 h, 4 days incubation, crystal violet, read-out: Biological Assay 2: Proliferation assay (HeLa cell line) median IC50. The text has this: Human tumour cells were originally obtained from the American Type Culture Collection (ATCC), the Deutsche Sammlung von Mikroorganismen und Zellkulturen (DSMZ, German Collection of Microorganisms and Cell Cultures), or Epo GmbH Berlin.

Experiment [3] has the same test system. Kind of experiment: Proliferation Assay (HeLa + Paclitaxel). The conditions noted are these: 3 nM paclitaxel, test substance 92 hours; read-out: Biological Assay 3: Proliferation Assay (HeLa + Paclitaxel) IC50. The class given is cell-based. The text has this:
Proliferation Assay (HeLa+Paclitaxel):

The subject of experiment [4] is pre-induced phospho-histone 2A (kinase activity of Bub1). Kind of experiment: H2A Abrogation-Assay (cell-based mechanistic assay, pre-treatment with Nocodazole). The conditions noted are these: Nocodazole 16 h, then test compound 1 h; read-out: Biological Assay 4:2: H2A Abrogation IC50. The text has this:
Biological Assay 4.2: Abrogation-Assay
This assay measures the inhibition of histone 2A phosphorylation, which was induced by pre-treatment of the cells with Nocodazole, by a Bub1 kinase inhibitor.

Experiment [5] concerns histone 2A phosphorylation (kinase activity of Bub1). Kind of experiment: H2A Formation-Assay (cell-based mechanistic assay, co-treatment with Nocodazole). The conditions noted are these: 16 h, read-out: Biological Assay 4.1: H2A Formation IC50.
Procedure: Cell-Based Mechanistic Assay: Changes of Phosphorylation Status of Histone 2A by Inhibition of Kinase Activity of Bub1
This assay determines the suppression of histone 2A phosphorylation by a Bub1 kinase inhibitor during co-treatment with Nocodazole. 25000 cells (cells were ordered from ATCC) were seeded in 96well plate for 5 h at 37° C. Cells were treated with Nocodazole (1 μg/ml) and varying concentrations (between 3 nM and 10 μM) of test compounds for 16 h. Cells were fixed (20 min, Fixing solution R&D), washed three times with PBS and blocked with Odyssey blocking buffer before incubating with the primary antibody against phosphorylated H2A (5 μg/ml ABIN482721) overnight at 2-8° C. After washing, secondary IRDye-labeled antibody mix with cell stains was added for 1 h and washed again with PBS. Plates were scanned with LICor Odyssey Infrared Imager CLx at 800 nm for P-H2A and at 700 nm for cell stains Draq5/Sapphire. The quotient of 800 nm and 700 nm for Nocodazole only treated cells was set as 100% and the quotient of 800 nm and 700 nm of untreated cells was set as 0%. […] The IC50 values were determined by means of a 4 parameter fit.

T1 sequence (O43683 704-1085): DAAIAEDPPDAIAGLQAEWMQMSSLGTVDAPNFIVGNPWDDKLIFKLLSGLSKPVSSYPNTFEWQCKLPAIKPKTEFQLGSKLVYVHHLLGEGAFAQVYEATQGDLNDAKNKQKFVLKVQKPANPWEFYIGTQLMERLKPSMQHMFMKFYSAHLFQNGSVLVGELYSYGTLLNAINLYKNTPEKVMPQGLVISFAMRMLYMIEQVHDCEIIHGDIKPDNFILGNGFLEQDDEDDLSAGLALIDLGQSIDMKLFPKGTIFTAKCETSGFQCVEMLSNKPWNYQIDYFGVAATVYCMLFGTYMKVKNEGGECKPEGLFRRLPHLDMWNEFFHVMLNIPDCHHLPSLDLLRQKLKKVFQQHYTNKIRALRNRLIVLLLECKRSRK

For the compound `CCOc1cc(F)c(Cn2nc(-c3ncc(OCCCO)c(Nc4ccncc4C4CC4)n3)c3ccccc32)c(F)c1` [Example 2-1-3, 3-({4-[(3-cyclopropylpyridin-4-yl)amino]-2-[1-(4-ethoxy-2,6-difluorobenzyl)-1H-indazol-3-yl]pyrimidin-5-yl}oxy)propan-1-ol], the IC50 in experiment [1] was 11 nM; in experiment [2], 3700 nM; in experiment [3], 54 nM; in experiment [4] it was 0.93 nM; in experiment [5] it was 0.97 nM.

Consider `CCOc1cc(F)c(Cn2nc(-c3ncc(OCCCO)c(Nc4ccnc(C)c4)n3)c3ccccc32)c(F)c1` [Example 2-1-4, 3-({2-[1-(4-ethoxy-2,6-difluorobenzyl)-1H-indazol-3-yl]-4-[(2-methylpyridin-4-yl)amino]pyrimidin-5-yl}oxy)propan-1-ol], for which the IC50 in experiment [1] was 12 nM; in experiment [2] it was 3000 nM; in experiment [3], 100 nM; in experiment [4], 80 nM; in experiment [5], 8.4 nM.

For the compound `CCOc1cc(F)c(Cn2nc(-c3ncc(OCCCO)c(Nc4ccnc(C)n4)n3)c3ccccc32)c(F)c1` [Example 2-1-7, 3-({2-[1-(4-ethoxy-2,6-difluorobenzyl)-1H-indazol-3-yl]-4-[(2-methylpyrimidin-4-yl)amino]pyrimidin-5-yl}oxy)propan-1-ol], the IC50 is 7 nM in experiment [1]; above 10000 nM in experiment [2]; 190 nM in experiment [3]; 48 nM in experiment [4]; 87 nM in experiment [5].

For `CCOc1cc(F)c(Cn2nc(-c3ncc(OCCCO)c(Nc4ccncn4)n3)c3ccccc32)c(F)c1` [Example 2-1-9, 3-({2-[1-(4-ethoxy-2,6-difluorobenzyl)-1H-indazol-3-yl]-4-(pyrimidin-4-ylamino)pyrimidin-5-yl}oxy)propan-1-ol], the IC50 in experiment [1] is 3.8 nM; in experiment [2], above 10000 nM; in experiment [3] it was 330 nM; in experiment [4], 33 nM; in experiment [5], 171 nM.

Take `CCOc1cc(F)c(Cn2nc(-c3ncc(OCCCO)c(Nc4ccnc(F)c4)n3)c3ccccc32)c(F)c1` [Example 2-1-10, 3-({2-[1-(4-ethoxy-2,6-difluorobenzyl)-1H-indazol-3-yl]-4-[(2-fluoropyridin-4-yl)amino]pyrimidin-5-yl}oxy)propan-1-ol]: the IC50 in experiment [1] came to 15 nM; in experiment [2] it was 9000 nM; in experiment [3] it was 1400 nM; in experiment [4], 23 nM; in experiment [5], 44 nM.

On to `CCOc1cc(F)c(Cn2nc(-c3ncc(OCCCO)c(Nc4cc(C)ncc4C)n3)c3ccccc32)c(F)c1` [Example 2-1-11, 3-{[4-[(2,5-dimethylpyridin-4-yl)amino]-2-[1-(4-ethoxy-2,6-difluorobenzyl)-1H-indazol-3-yl]pyrimidin-5-yl}oxy)propan-1-ol], for which the IC50 was 21 nM in experiment [1]; 3200 nM in experiment [2]; 260 nM in experiment [3]; 17 nM in experiment [4]; 26 nM in experiment [5].

Take `OCCCOc1cnc(-c2nn(Cc3c(F)cc(OCC4CC4)cc3F)c3ccccc23)nc1Nc1ccncc1Cl` [Example 2-1-13, 3-[(4-[(3-chloropyridin-4-yl)amino]-2-{1-[4-(cyclopropylmethoxy)-2,6-difluorobenzyl]-1H-indazol-3-yl}pyrimidin-5-yl)oxy]propan-1-ol]: the IC50 is 11 nM in experiment [1]; 3900 nM in experiment [2]; 180 nM in experiment [3]; 64 nM in experiment [4]; 360 nM in experiment [5].

As to `CCOc1cc(F)c(Cn2nc(-c3ncc(OCCCO)c(Nc4cc(C)nc(C)n4)n3)c3ccccc32)c(F)c1` [Example 2-1-14, 3-({4-[(2,6-Dimethylpyrimidin-4-yl)amino]-2-[1-(4-ethoxy-2,6-difluorobenzyl)-1H-indazol-3-yl]pyrimidin-5-yl}oxy)propan-1-ol], the IC50 was above 20000 nM in experiment [1]; above 10000 nM in experiment [2]; 39 nM in experiment [3]; 0.92 nM in experiment [4]; 8.7 nM in experiment [5].

On to `CCOc1cc(F)c(Cn2nc(-c3ncc(OCCCO)c(Nc4ccnc(NC(=O)C5CC5)c4)n3)c3ccccc32)c(F)c1` [Example 2-1-15, N-[4-({2-[1-(4-Ethoxy-2,6-difluorobenzyl)-1H-indazol-3-yl]-5-(3-hydroxypropoxy)pyrimidin-4-yl}amino)pyridin-2-yl]cyclopropancarboxamide], for which the IC50 was 8 nM in experiment [1]; 3000 nM in experiment [2]; 140 nM in experiment [3]; 4.6 nM in experiment [4]; 37 nM in experiment [5].

`CCOc1cc(F)c(Cn2nc(-c3ncc(OCCCO)c(Nc4ccnc(NC(C)=O)c4C)n3)c3ccccc32)c(F)c1` [Example 2-1-17, N-[4-({2-[1-(4-ethoxy-2,6-difluorobenzyl)-1H-indazol-3-yl]-5-(3-hydroxypropoxy)pyrimidin-4-yl}amino)-3-methylpyridin-2-yl]acetamide]: the IC50 in experiment [1] was 9.2 nM; in experiment [2], above 10000 nM; in experiment [3] it was 200 nM; in experiment [4], 3.9 nM; in experiment [5], 1.7 nM.

In the case of `Cc1nccc(Nc2nc(-c3nn(Cc4c(F)cc(OCC(F)(F)F)cc4F)c4ccccc34)ncc2OCCCO)n1` [Example 2-1-19, 3-[(2-{1-[2,6-difluoro-4-(2,2,2-trifluoroethoxy)benzyl]-1H-indazol-3-yl}-4-[(2-methylpyrimidin-4-yl)amino]pyrimidin-5-yl)oxy]propan-1-ol], the IC50 is 21 nM in experiment [1]; above 10000 nM in experiment [2]; 120 nM in experiment [3]; 2.5 nM in experiment [4]; 3.5 nM in experiment [5].

Consider `OCCCOc1cnc(-c2nn(Cc3c(F)cc(OCC(F)(F)F)cc3F)c3ccccc23)nc1Nc1ccncc1Cl` [Example 2-1-20, 3-[(4-[(3-chloropyridin-4-yl)amino]-2-{1-[2,6-difluoro-4-(2,2,2-trifluoroethoxy)benzyl]-1H-indazol-3-yl}pyrimidin-5-yl)oxy]propan-1-ol], for which the IC50 was 13 nM in experiment [1]; 6200 nM in experiment [2]; 98 nM in experiment [3]; above 1000 nM in experiment [4]; 110 nM in experiment [5].

As to `Cc1nccc(Nc2nc(-c3nn(Cc4c(F)cc(OCC(F)F)cc4F)c4ccccc34)ncc2OCCCO)n1` [Example 2-1-21, 3-[(2-{1-[4-(2,2-difluoroethoxy)-2,6-difluorobenzyl]-1H-indazol-3-yl}-4-[(2-methylpyrimidin-4-yl)amino]pyrimidin-5-yl)oxy]propan-1-ol], the IC50 in experiment [1] was 11 nM; in experiment [2], above 10000 nM; in experiment [3], 170 nM; in experiment [4], 56 nM; in experiment [5], 26 nM.

`Cc1nccc(Nc2nc(-c3nn(Cc4c(F)cc(OCC5CC5)cc4F)c4ccccc34)ncc2OCCCO)n1` [Example 2-1-24, 3-[(2-{1-[4-(cyclopropylmethoxy)-2,6-difluorobenzyl]-1H-indazol-3-yl}-4-[(2-methylpyrimidin-4-yl)amino]pyrimidin-5-yl)oxy]propan-1-ol]: the IC50 in experiment [1] is 23 nM; in experiment [2], 9940 nM; in experiment [3] it was 330 nM; in experiment [4] it was 0.85 nM; in experiment [5], 2.1 nM.

For the compound `OCCCOc1cnc(-c2nn(Cc3c(F)cc(OCC(F)F)cc3F)c3ccccc23)nc1Nc1ccncc1Cl` [Example 2-1-26, 3-[(4-[(3-chloropyridin-4-yl)amino]-2-{1-[4-(2,2-difluoroethoxy)-2,6-difluorobenzyl]-1H-indazol-3-yl}pyrimidin-5-yl)oxy]propan-1-ol], the IC50 in experiment [1] was determined as 14 nM; in experiment [2], 3790 nM; in experiment [3] it was 64 nM; in experiment [4] it was 38 nM; in experiment [5], 14 nM.
